Experimental data published in US7247309B2, “Coccidiosis vaccines” (Intervet International B.V., priority 1999, dated 2007).

Tested on: Eimeria strains according to the invention
Test: Tolerance/sensitivity of the strains to anticoccidial drugs (infection of chickens with the strains and administration of drug)
Assay type: in vivo
Procedure: all four strains are tolerant to two commonly used anticoccidial ionophores: monensin (110 ppm) and salinomycin (60 ppm). The concentrations tested are commonly used concentrations. Specific tolerance levels were determined by infection of chickens with the strains and administration of ionophores.
These four strains are tolerant for 110 ppm of monensin and for 60 ppm of salinomycin, sensitive for 1 ppm of diclazuril (see FIG. 1) and the proliferative capacity of the four strains is decreased to 76000 (see Table 1b).

N#CC(c1ccc(Cl)cc1)c1c(Cl)cc(-n2ncc(=O)[nH]c2=O)cc1Cl (stereo not drawn) [diclazuril]
sensitivity of the strains to diclazuril (diclazuril 1 ppm): fully sensitive

CC[C@@]1([C@@H]2O[C@@H]([C@H]3O[C@@](O)(CO)[C@H](C)C[C@@H]3C)C[C@@H]2C)CC[C@H]([C@]2(C)CC[C@]3(C[C@H](O)[C@@H](C)[C@@H]([C@@H](C)[C@@H](OC)[C@H](C)C(=O)O)O3)O2)O1 [monensin]
tolerance of the strains to monensin (monensin 110 ppm, chickens infected with the strains): tolerant

CC[C@@H](C(=O)[C@@H](C)[C@@H](O)[C@H](C)[C@@H]1O[C@@H]([C@@H](CC)C(=O)O)CC[C@@H]1C)[C@H]1O[C@]2(C=C[C@@H](O)[C@]3(CC[C@@](C)([C@H]4CC[C@](O)(CC)[C@H](C)O4)O3)O2)[C@H](C)C[C@@H]1C [salinomycin]
tolerance of the strains to salinomycin (salinomycin 60 ppm, chickens infected with the strains): tolerant
